Results reported in publication PMC9828493, “Design, Synthesis, and in Vitro Evaluation of 4‐(4‐Hydroxyphenyl)piperazine‐Based Compounds Targeting Tyrosinase” (Chemmedchem, 2022).
Values joined by “and” are separate entries in the source; they are usually repeats but may differ in a detail not shown here. Identical values can stand only once.

Key:
[1] = system: tyrosinase activity in α‐MSH‐stimulated B16F10 cells; experiment: Tyrosinase zymography (L-DOPA staining) in α-MSH-stimulated B16F10 cells; assay type: cell-based, Murine; conditions: Mus musculus, B16-F10; α-MSH (100 nM)-stimulated B16F10 cells, 48 h, 25 μM; read-out: inhibition of tyrosinase activity / melanogenesis
Protocol: ImageJ software was used to determine the intensity of bands.
A day after seeding the B16F10 cells (6×10^4 cells/mL) the culture medium was substituted by fresh one supplemented with 100 nM α‐MSH.
After incubation for 48 h, cells were washed and lysed using phosphate buffer (25 mM, pH 6.8) containing Triton X‐100 (1 %) and phenylmethyl‐sulfonyl fluoride (0.1 mM). Cellular lysates were centrifugated at 13000 rpm for 20 min at 4 °C. The protein content was determined by Bradford method and BSA was used as standard.
SDS‐polyacrylamide gel electrophoresis was used to resolve the protein extracts previously mixed with 10 mM Tris‐HCl buffer, pH 7.0, containing 1 % SDS, without mercaptoethanol.
After running, gel was rinsed in phosphate buffer (0.1 M, pH 7.0) and equilibrated for 30 min twice. […] Tyrosinase activity was visualized in the gel as dark melanin‐containing bands

[2] = biological target: T1, TYR from Agaricus bisporus (AbTYR) (Agaricus bisporus, UniProt C7FF04); experiment: Kinetic analysis of AbTYR inhibition (Lineweaver-Burk plots, L-DOPA); conditions: L-DOPA 0.6–5 mM, three inhibitor concentrations, phosphate buffer pH 6.8
Protocol: Kinetics studies were performed in presence of three different concentrations of selected inhibitors, L‐DOPA (0.6–5 mM) and AbTYR in phosphate buffer (0.05 M, pH 6.8).
(§1) absorbance was measured after 60 or 1 min of incubation time in the reaction mixture containing
(§2) L-tyrosine or L-DOPA, respectively. The inhibitory activity was expressed as inhibition percentage
(§3) calculated by interpolation of the dose-response curves. Kojic acid [5-hydroxy-2-(hydroxymethyl)-
(§4) 4H-pyran-4-one], a fungal secondary metabolite used as skin whitening agent, was employed as a
(§5) positive standard (10–50 μM). A spectrophotometer (Agilent Cary 60 UV-Vis Spectrophotometer)
(§6) The inhibition kinetics on the tyrosinase were studied using Lineweaver-Burk double reciprocal
(§7) plots. The reaction mixture consisted of four different concentrations of the substrate L-DOPA
(§8) (0.6–5 mM), and mushroom tyrosinase in phosphate buffer (0.05 M, pH 6.8). Three different
(§9) concentrations were used for the analysis. Preincubation and measurement time were the same
(§10) as discussed in mushroom tyrosinase inhibition assay. The Michaelis-Menten constant (Km) and
(§11) maximal velocity (Vmax) of tyrosinase were determined by Lineweaver-Burk plots.

[3] = biological target: T1, TYR from Agaricus bisporus (AbTYR); experiment: Inhibition of diphenolase activity of AbTYR (L-DOPA as substrate); conditions: IC50 [μM]±SD, inhibition of diphenolase activity of AbTYR, L-DOPA substrate, three replicates;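 note: absorbance measured spectrophotometrically with L-DOPA as substrate, inhibition expressed as percent relative to control sample, IC50 interpolated from dose-response curves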
Protocol: as §1, §2, §3, §4, §5, §6, §7, §8, §9, §10, §11

[4] = ABTS radical scavenging antioxidant assay; conditions: mean ± SD of three independent experiments
Protocol: ABTS [2,20‐azinobis‐(3‐ethylbenzothiazoline‐6‐sulfonic acid)] assay was used to determine the total free radical‐scavenging capacity of compounds. 6‐hydroxy‐2,5,7,8‐tetramethylchromane‐2‐carboxylic acid (Trolox) was used as the reference antioxidant.[15]
The ABTS⋅^+ method is based on the capacity of an antioxidant to scavenge the free ABTS⋅^+. To produce this radical an aqueous mixture of 7 mM ABTS with 2.45 mM potassium persulfate was required.
The ABTS solution was kept in the dark, at room temperature, for 24 h before use. The ABTS⋅^+ mixture was diluted, and each compound (10 μL) was added to solution. After 1 min of incubation the absorbance was recorded at 734 nm. Afterwards the decrease in A734 was calculated and referred to the Trolox standard curve. Antioxidant activity was expressed as concentration of the compound to give a 50 % reduction in the original absorbance (EC50).

[5] = biological target: T1, TYR from Agaricus bisporus (AbTYR); experiment: Inhibition of monophenolase activity of AbTYR (L-Tyr as substrate); assay type: biochemical; design: purchased Sigma Chemical Co. (St. Louis, MO, USA); conditions: 40 μM (Figure S69)
Protocol: Mushroom tyrosinase inhibition assay
6.8). […] Subsequently, 0.05 mL of
L-tyrosine or L-DOPA, respectively.
respect to control sample.
positive standard (10–50 μM).
was used for absorbance measurements.
Kinetic analysis of the tyrosinase inhibition

B16F10 cells = experiment: Cell viability assay (MTT); assay type: cell-based, Murine; conditions: 48 h, until a concentration of 10 μM
Protocol: Murine melanoma B16F10 cells (CRL‐6475) were cultured as previous reported.[17]
3‐(4,5‐Dimethylthiazol‐2‐yl)‐2,5‐diphenyltetrazolium bromide (MTT) was used to measure the cells viability. Cells were seeded in 96‐well plates for 24 hours with a density of 5x10^3 for well. Cells were then treated for 48 h with compounds (ranging from 4 μM to 100 μM). After incubation at 37 °C and 5 % of CO2, 100 μL of MTT reagent were added to the cells and incubated 3 h at 37 °C. After adding DMSO the absorbance was determined at 560 nm. The amount of living cells in treated samples relative to untreated controls (100 %) provided the cell viability. The mean value and standard deviation (SD) were calculated from triplicate experiments.
different concentrations of compounds (4-100 μM) and their viability was evaluated by MTT assay. Data
represent mean ± SD of triplicate experiments.

T1 sequence (C7FF04 1-392 limits assumed): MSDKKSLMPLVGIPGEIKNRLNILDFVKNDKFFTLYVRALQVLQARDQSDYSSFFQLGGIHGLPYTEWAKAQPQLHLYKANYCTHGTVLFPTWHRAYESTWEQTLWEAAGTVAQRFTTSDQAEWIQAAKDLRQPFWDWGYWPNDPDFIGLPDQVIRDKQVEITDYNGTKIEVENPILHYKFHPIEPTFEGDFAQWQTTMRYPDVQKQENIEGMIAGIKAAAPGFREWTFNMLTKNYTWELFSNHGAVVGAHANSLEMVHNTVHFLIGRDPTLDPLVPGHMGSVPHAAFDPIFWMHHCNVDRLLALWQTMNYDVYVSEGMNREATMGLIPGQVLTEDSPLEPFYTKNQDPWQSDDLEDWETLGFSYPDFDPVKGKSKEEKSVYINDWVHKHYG

## O=c1cc(CO)occ1O [KA, kojic acid, reference compound]
[1]
  inhibition at 25 µM: 17%

## Oc1ccc(N2CCNCC2)cc1 [compound 1, 4‐(1‐piperazinyl)phenol]
[2]
  mechanism of inhibition of AbTYR: competitive inhibitor
[3]
  IC50: 28.9 ± 4.9 µM

## O=C(c1ccccc1)N1CCN(c2ccc(O)cc2)CC1 [compound 2, (4‐(4‐Hydroxyphenyl)piperazin‐1‐yl)(phenyl)methanone]
[3]
  IC50: 73.2 ± 3.5 µM

## O=C(c1ccc(-c2ccccc2)cc1)N1CCN(c2ccc(O)cc2)CC1 [compound 3, (4‐(4‐Hydroxyphenyl)piperazin‐1‐yl)(biphenyl‐4‐yl)methanone]
[3]
  IC50: 128 ± 4.1 µM

## O=C(c1ccccc1F)N1CCN(c2ccc(O)cc2)CC1 [compound 4, (4‐(4‐Hydroxyphenyl)piperazin‐1‐yl)(2‐fluorophenyl)methanone]
other
  melting point: 142 to 143 °C
[3]
  IC50: 15.2 ± 0.9 µM

## O=C(c1cccc(F)c1)N1CCN(c2ccc(O)cc2)CC1 [compound 5, (4‐(4‐Hydroxyphenyl)piperazin‐1‐yl)(3‐fluorophenyl)methanone]
other
  melting point: 145 to 146 °C
[3]
  IC50: 22.6 ± 1.3 µM

## O=C(c1ccccc1Cl)N1CCN(c2ccc(O)cc2)CC1 [compound 7, (4‐(4‐Hydroxyphenyl)piperazin‐1‐yl)(2‐chlorophenyl)methanone]
[4]
  EC50: 13.2 ± 0.5 µM
[5]
  inhibitory effect on monophenolase activity of AbTYR: active inhibitors
B16F10 cells
  cytotoxic effect (MTT): no cytotoxic effect
other
  melting point: 169 to 170 °C
[3]
  IC50: < 5 µM and 2.6 µM

## O=C(c1cccc(Cl)c1)N1CCN(c2ccc(O)cc2)CC1 [compound 8, (4‐(4‐Hydroxyphenyl)piperazin‐1‐yl)(3‐chlorophenyl)methanone]
other
  melting point: 138 to 139 °C
[3]
  IC50: 9 ± 1 µM

## O=C(c1ccc(Cl)cc1)N1CCN(c2ccc(O)cc2)CC1 [compound 9, (4‐(4‐Hydroxyphenyl)piperazin‐1‐yl)(4‐chlorophenyl)methanone]
[3]
  IC50: 8.9 ± 0.9 µM

## O=C(c1ccccc1Br)N1CCN(c2ccc(O)cc2)CC1 [compound 11, (4‐(4‐Hydroxyphenyl)piperazin‐1‐yl)(2‐bromophenyl)methanone]
[4]
  EC50: 13.2 ± 1.1 µM
[5]
  inhibitory effect on monophenolase activity of AbTYR: active inhibitors
B16F10 cells
  cytotoxic effect (MTT): no cytotoxic effect
other
  melting point: 180 to 181 °C
[3]
  IC50: < 5 µM and 4.5 µM

## O=C(c1cccc(Br)c1)N1CCN(c2ccc(O)cc2)CC1 [compound 12, (4‐(4‐Hydroxyphenyl)piperazin‐1‐yl)(3‐bromophenyl)methanone]
[3]
  IC50: 16.4 ± 1.9 µM

## O=C(c1ccc(Br)cc1)N1CCN(c2ccc(O)cc2)CC1 [compound 13, (4‐(4‐Hydroxyphenyl)piperazin‐1‐yl)(4‐bromophenyl)methanone]
other
  melting point: 190 to 191 °C
[3]
  IC50: 39.6 ± 0.9 µM

## Cc1ccccc1C(=O)N1CCN(c2ccc(O)cc2)CC1 [compound 14, [4‐(4‐Hydroxyphenyl)piperazin‐1‐yl](2‐methylphenyl)methanone]
other
  melting point: 127 to 128 °C
[3]
  IC50: 29.9 ± 2 µM

## Cc1cccc(C(=O)N2CCN(c3ccc(O)cc3)CC2)c1 [compound 15, [4‐(4‐Hydroxyphenyl)piperazin‐1‐yl](3‐methylphenyl)methanone]
other
  melting point: 155 to 156 °C
[3]
  IC50: 31.7 ± 0.5 µM

## Cc1ccc(C(=O)N2CCN(c3ccc(O)cc3)CC2)cc1 [compound 16, [4‐(4‐Hydroxyphenyl)piperazin‐1‐yl](4‐methylphenyl)methanone]
other
  melting point: 162 to 163 °C
[3]
  IC50: 34.4 ± 0.5 µM

## O=C(c1ccccc1C(F)(F)F)N1CCN(c2ccc(O)cc2)CC1 [compound 17, (4‐(4‐Hydroxyphenyl)piperazin‐1‐yl)(2‐(trifluoromethyl)phenyl)methanone]
[4]
  EC50: 9 ± 0.9 µM
[5]
  inhibitory effect on monophenolase activity of AbTYR: active inhibitors
B16F10 cells
  cytotoxic effect (MTT): no cytotoxic effect
other
  melting point: 152 to 153 °C
[3]
  IC50: 4.6 ± 0.3 µM

## O=C(c1cccc(C(F)(F)F)c1)N1CCN(c2ccc(O)cc2)CC1 [compound 18, (4‐(4‐Hydroxyphenyl)piperazin‐1‐yl)(3‐(trifluoromethyl)phenyl)methanone]
other
  melting point: 127 to 128 °C
[3]
  IC50: 5.5 ± 0.2 µM

## O=C(c1ccc(C(F)(F)F)cc1)N1CCN(c2ccc(O)cc2)CC1 [compound 19, (4‐(4‐Hydroxyphenyl)piperazin‐1‐yl)(4‐(trifluoromethyl)phenyl)methanone]
other
  melting point: 201 to 202 °C
[3]
  IC50: 35.1 ± 0.5 µM

## O=C(c1ccc(C(F)(F)F)cc1C(F)(F)F)N1CCN(c2ccc(O)cc2)CC1 [compound 20, (4‐(4‐Hydroxyphenyl)piperazin‐1‐yl)(2,4‐bis(trifluoromethyl)phenyl)methanone]
other
  melting point: 194 to 195 °C
[3]
  IC50: 18.2 ± 2.4 µM

## COc1cccc(C(=O)N2CCN(c3ccc(O)cc3)CC2)c1 [compound 22, [4‐(4‐Hydroxyphenyl)piperazin‐1‐yl](3‐methoxyphenyl)methanone]
[3]
  IC50: 9.8 ± 0.4 µM

## COc1ccc(C(=O)N2CCN(c3ccc(O)cc3)CC2)cc1 [compound 23, [4‐(4‐Hydroxyphenyl)piperazin‐1‐yl](4‐methoxyphenyl)methanone]
other
  melting point: 177 to 178 °C
[3]
  IC50: 14.9 ± 0.7 µM

## COc1ccc(C(=O)N2CCN(c3ccc(O)cc3)CC2)c(OC)c1 [compound 24, [4‐(4‐Hydroxyphenyl)piperazin‐1‐yl](2,4‐dimethoxyphenyl)methanone]
[3]
  IC50: 16.7 ± 2 µM

## O=C(c1ccc(F)cc1F)N1CCN(c2ccc(O)cc2)CC1 [compound 25, (4‐(4‐Hydroxyphenyl)piperazin‐1‐yl)(2,4‐difluorophenyl)methanone]
other
  melting point: 180 to 181 °C
[3]
  IC50: 17.5 ± 1.3 µM

## O=C(c1ccc(Br)cc1Br)N1CCN(c2ccc(O)cc2)CC1 [compound 26, (4‐(4‐Hydroxyphenyl)piperazin‐1‐yl)(2,4‐dibromophenyl)methanone]
other
  melting point: 176 to 177 °C
[3]
  IC50: 9.5 ± 0.3 µM

## Cc1ccc(C(=O)N2CCN(c3ccc(O)cc3)CC2)c(C)c1 [compound 27, [4‐(4‐Hydroxyphenyl)piperazin‐1‐yl](2,4‐dimethylphenyl)methanone]
other
  melting point: 164 to 165 °C
[3]
  IC50: 33.7 ± 0.7 µM

## O=C(c1ccccc1[N+](=O)[O-])N1CCN(c2ccc(O)cc2)CC1 [compound 28, (4‐(4‐hydroxyphenyl)piperazin‐1‐yl)(2‐nitrophenyl)methanone]
other
  melting point: 184 to 185 °C
[3]
  IC50: 7.4 ± 0.7 µM

## O=C(c1cccc([N+](=O)[O-])c1)N1CCN(c2ccc(O)cc2)CC1 [compound 29, (4‐(4‐Hydroxyphenyl)piperazin‐1‐yl)(3‐nitrophenyl)methanone]
[3]
  IC50: 21.8 ± 1.2 µM

## O=C(c1ccc([N+](=O)[O-])cc1)N1CCN(c2ccc(O)cc2)CC1 [compound 30, (4‐(4‐Hydroxyphenyl)piperazin‐1‐yl)(4‐nitrophenyl)methanone]
other
  melting point: 157 to 158 °C
[3]
  IC50: 23.2 ± 1.5 µM

## O=C(c1ccc([N+](=O)[O-])cc1[N+](=O)[O-])N1CCN(c2ccc(O)cc2)CC1 [compound 31, (4‐(4‐Hydroxyphenyl)piperazin‐1‐yl)(2,4‐dinitrophenyl)methanone]
other
  melting point: 225 to 226 °C
[3]
  IC50: 7.6 ± 0.05 µM

## Nc1ccccc1C(=O)N1CCN(c2ccc(O)cc2)CC1 [compound 32, (4‐(4‐Hydroxyphenyl)piperazin‐1‐yl)(2‐aminophenyl)methanone]
[3]
  IC50: 66.4 ± 2.1 µM

## Nc1cccc(C(=O)N2CCN(c3ccc(O)cc3)CC2)c1 [compound 33, (4‐(4‐Hydroxyphenyl)piperazin‐1‐yl)(3‐aminophenyl)methanone]
other
  melting point: 95 to 96 °C
[3]
  IC50: 35.7 ± 1.05 µM

## Nc1ccc(C(=O)N2CCN(c3ccc(O)cc3)CC2)cc1 [compound 34, (4‐(4‐Hydroxyphenyl)piperazin‐1‐yl)(4‐aminophenyl)methanone]
other
  melting point: 94 to 95 °C
[3]
  IC50: 43.9 ± 3.4 µM

## Nc1ccc(C(=O)N2CCN(c3ccc(O)cc3)CC2)c(N)c1 [compound 35, (4‐(4‐Hydroxyphenyl)piperazin‐1‐yl)(2,4‐diaminophenyl)methanone]
other
  melting point: 80 to 81 °C
[3]
  IC50: 82.4 ± 1.1 µM
